The results in this text go back to US11226337B2, “Chemoproteomic profiling of protein electrophilic and oxidative post-translational modifications” (Zenagem, LLC, priority 2017, dated 2022).

The target of assay [1] is T1, RARS2 Probable arginine tRNA ligase (Q5T160) (Homo sapiens, UniProt Q5T160).
T1 construct: shared by both the endogenous and recombinant forms of these proteins; endogenous in cells; host or cells: HEK293T and MDA-MB-231
T1 sequence (Q5T160 17-578): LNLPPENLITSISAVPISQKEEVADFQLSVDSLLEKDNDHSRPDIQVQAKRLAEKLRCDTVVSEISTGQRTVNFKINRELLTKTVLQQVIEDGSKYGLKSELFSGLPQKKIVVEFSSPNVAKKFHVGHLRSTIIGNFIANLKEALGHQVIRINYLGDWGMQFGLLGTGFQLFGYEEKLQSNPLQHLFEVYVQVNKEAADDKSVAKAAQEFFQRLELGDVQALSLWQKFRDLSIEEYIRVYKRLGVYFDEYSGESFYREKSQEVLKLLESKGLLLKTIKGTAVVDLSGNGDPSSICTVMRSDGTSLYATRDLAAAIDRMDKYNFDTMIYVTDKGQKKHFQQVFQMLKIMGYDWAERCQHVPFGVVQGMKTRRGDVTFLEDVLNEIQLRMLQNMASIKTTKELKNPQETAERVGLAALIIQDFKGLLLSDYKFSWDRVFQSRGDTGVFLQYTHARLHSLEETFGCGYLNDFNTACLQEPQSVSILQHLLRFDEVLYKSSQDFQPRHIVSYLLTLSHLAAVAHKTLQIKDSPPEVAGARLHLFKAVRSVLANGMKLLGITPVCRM
Kind of assay: SILAC RP-ABPP. The settings on record: SILAC H/L. The assay is classed as cell-based.

For assay [2], the target named is T2, SCPEP1 Retinoidinducible serine (Q9HB40) (Homo sapiens, UniProt Q9HB40).
T2 construct: In Situ Labelling of Cells with Hydrazine Probes for MS Experiments; endogenous in cells; host or cells: HEK293T and MDA-MB-231
T2 sequence (Q9HB40 27-452): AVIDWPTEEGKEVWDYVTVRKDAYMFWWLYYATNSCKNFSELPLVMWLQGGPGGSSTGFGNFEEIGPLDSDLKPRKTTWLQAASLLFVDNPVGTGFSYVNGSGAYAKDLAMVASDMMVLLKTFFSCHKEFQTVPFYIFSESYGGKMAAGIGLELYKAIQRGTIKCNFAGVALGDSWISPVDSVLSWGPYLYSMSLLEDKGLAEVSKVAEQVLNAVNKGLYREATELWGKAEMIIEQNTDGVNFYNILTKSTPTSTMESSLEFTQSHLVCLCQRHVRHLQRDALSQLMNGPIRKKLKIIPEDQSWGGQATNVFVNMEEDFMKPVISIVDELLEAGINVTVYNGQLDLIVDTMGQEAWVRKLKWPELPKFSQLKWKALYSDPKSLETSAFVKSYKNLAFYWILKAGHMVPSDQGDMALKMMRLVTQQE
Kind of assay: SILAC RP-ABPP. The format is cell-based. The settings on record: SILAC H/L.

Setting [3] is: probe 1 3 mM 0.5 h vs probe 3, HEK293T.
[4] abbreviates: probe 1 vs probe 1+10x probe 3, HEK293T.

For `C#CCCNC(=O)c1ccc(NN)cc1.Cl` [probe 2, N-(but-3-yn-1-yl)-4-hydrazinylbenzamide hydrochloride], the competition ratioavg in assay [1] (probe 2 vs probe 2+10x probe 4, cell line not given) was found to be 3; in assay [2] (probe 2 vs probe 2+10x probe 4, MDA-MB-231), 4. Besides, in assay [2] (probe 2 1 mM 0.5 h vs probe 4, MDA-MB-231), the enrichment ratioavg was 19.

In the case of `C#CCNN.Cl` [probe 1, prop-2-yn-1-ylhydrazine hydrochloride], the enrichment ratioavg was 16 in assay [1] (setting [3]) and 5 in assay [2] (setting [3]). The values for the competition ratioavg in assay [1] (setting [4]) and in assay [2] (setting [4]) were 4 and 2, respectively.
